The values below come from patent publication US20230393140A1, “BINDING ASSAYS INVOLVING A PLURALITY OF SYNTHETIC COMPOUNDS, TARGETS, AND COUNTER TARGETS” (SRI International, priority 2020, published 2023).

The structures appear in SMILES notation. Numbered stars: 1 amine (or outer) side, 2 acyl side, 3 side chain; on linkers, the order of the positions; unused ones are H or OH. Square brackets hold non-standard residues; d marks the D form. Peptide text beside a SMILES is read from it. * marks the point of attachment. 5FAM = O=C1OC2(c3ccc(O)cc3Oc3cc(O)ccc32)c2ccc(C(=O)*)cc21; NHCH2C6H4(4-CH2CONH2) = NC(=O)Cc1ccc(CN*)cc1; X1 = O=C(Cc1ccc(CN[*:1])cc1)[*:2]

In this assay the target is TNFα (Homo sapiens, UniProt P01375). Description: MST binding affinity of resynthesized NNP hits to TNFα. To be noted: read-out: KD (nM) [95% conf. int], NNP2 library hit, target TNFα, one-site binding model. Also on record: purchased R&D Systems, Inc. 210-TA/CF. Here is the method:
Hit binding affinity to various targets were determined using Microscale Thermophoresis (MST). MST experiments were performed on a Monolith NT.115pico (NanoTemper Technologies GmbH, Munich, Germany). Measurements were performed at room temperature, in triplicate with incubation periods of 15, 30 and 45 minutes. […] Targets were labeled using Nanotemper Monolith 2nd Generation Protein Labeling Kits. RED-MALEIMIDE (Maleimide-647-dye) labeling kit was used for K-Ras and RED-NHS (NHS-647-dye) labeling kit was used for IL-6, IL-6R, TNFα and ASGPR. The buffer for the ASGPR contained 20 mM HEPES pH 7.4, 150 mM NaCl, 10 mM MgCl2, 2 mM CaCl2, 0.05% Pluronic F-127, and 1 mM DTT; for IL-6 contained 20 mM HEPES pH 7.4, 150 mM KCl, 10 mM MgCl2, and 0.1% Pluronic F-127; for the soluble IL-6 receptor 20 mM HEPES pH 7.4, 150 mM NaCl, 10 mM MgCl2, and 0.05% Tween-20; for K-Ras 20 mM HEPES pH 7.4, 150 mM NaCl, 10 mM MgCl2, 0.05% Tween-20 and 1 mM DTT; for TNFα 10 mM HEPES pH 7.4, 150 mM NaCl, 10 mM MgCl2, 0.05% Polysorbate-20. Triplicate data was analyzed using MO.AffinityAnalysis software (NanoTemper Technologies GmbH).

TNFα, sequence (P01375 77-233 limits assumed): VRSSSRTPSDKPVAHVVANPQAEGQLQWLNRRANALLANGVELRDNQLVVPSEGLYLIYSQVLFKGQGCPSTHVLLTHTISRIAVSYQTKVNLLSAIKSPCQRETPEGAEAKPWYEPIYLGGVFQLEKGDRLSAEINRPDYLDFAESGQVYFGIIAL

For orientation: Kd means a measure of binding affinity in units of concentration. Take `CC(C)C[C@H](NC(=O)[C@@H](CCC(=O)O)NC(=O)[C@H]1CCCN1C(=O)Cc1ccc(CNC(=O)[C@H](CC(C)C)NC(=O)[C@@H](CCCCN)NC(=O)[C@@H](Cc2ccccc2)NC(=O)Cc2ccc(CNC(=O)[C@@H](NC(=O)[C@@H](CCC(=O)O)NC(=O)[C@@H](Cc3ccccc3)NC(=O)Cc3ccc(CNC(=O)[C@H](CC(C)C)NC(=O)[C@@H](CCCNC(=N)N)NC(=O)[C@@H](CC(C)C)NC(=O)Cc4ccc(CNC(=O)[C@H](CC(C)C)NC(=O)[C@H](NC(=O)[C@@H](CCCCN)NC(=O)c5ccc6c(c5)C(=O)OC65c6ccc(O)cc6Oc6cc(O)ccc65)C(C)C)cc4)cc3)C(C)C)cc2)cc1)C(=O)NCc1ccc(CC(=O)N[C@H](Cc2ccccc2)C(=O)N[C@@H](C(=O)N[C@@H](C)C(=O)NCc2ccc(CC(=O)N[C@H](Cc3c[nH]cn3)C(=O)N[C@H](CCC(=O)O)C(=O)N[C@@H](CC(C)C)C(=O)NCc3ccc(CC(=O)N[C@H](CCC(=O)O)C(=O)N[C@H](Cc4ccc(O)cc4)C(=O)N[C@@H](Cc4ccccc4)C(=O)NCc4ccc(CC(=O)N[C@@H](C(=O)N[C@H](CO)C(=O)N[C@H](C(=O)NCc5ccc(CC(N)=O)cc5)C(C)C)[C@H](C)O)cc4)cc3)cc2)[C@H](C)O)cc1` [TNF-31-16] (5FAM-[dK][dV]L[X1][dL][dR]L[X1][dF][dE]V[X1][dF][dK]L[X1][dP][dE]L[X1][dF][dT]A[X1][dH][dE]L[X1][dE][dY]F[X1][dT][dS]V-{NHCH2C6H4(4-CH2CONH2)}): the Kd amounted to 180 nM.

Consider `CC(C)C[C@H](NC(=O)[C@@H](CCCNC(=N)N)NC(=O)[C@@H](CC(C)C)NC(=O)Cc1ccc(CNC(=O)[C@H](CC(C)C)NC(=O)[C@H](NC(=O)[C@@H](CCCCN)NC(=O)c2ccc3c(c2)C(=O)OC32c3ccc(O)cc3Oc3cc(O)ccc32)C(C)C)cc1)C(=O)NCc1ccc(CC(=O)N[C@H](Cc2ccccc2)C(=O)N[C@H](CCC(=O)O)C(=O)N[C@H](C(=O)NCc2ccc(CC(=O)N[C@H](Cc3ccccc3)C(=O)N[C@H](CCCNC(=N)N)C(=O)N[C@@H](C)C(=O)NCc3ccc(CC(=O)N[C@H](Cc4ccc(O)cc4)C(=O)N[C@H](CCCCN)C(=O)N[C@@H](C)C(=O)NCc4ccc(CC(=O)N[C@H](CCC(=O)O)C(=O)N[C@H](CO)C(=O)N[C@H](C(=O)NCc5ccc(CC(=O)N6CCC[C@@H]6C(=O)N[C@@H](C(=O)NCC(=O)NCc6ccc(CC(=O)N7CCC[C@@H]7C(=O)N[C@H](CCCNC(=N)N)C(=O)N[C@@H](C)C(=O)NCc7ccc(CC(=O)N[C@H](Cc8ccccc8)C(=O)N[C@H](CCCCN)C(=O)NCC(=O)NCc8ccc(CC(N)=O)cc8)cc7)cc6)C(C)C)cc5)C(C)C)cc4)cc3)cc2)C(C)C)cc1` [TNF-39-5] (5FAM-[dK][dV]L[X1][dL][dR]L[X1][dF][dE]V[X1][dF][dR]A[X1][dY][dK]A[X1][dE][dS]V[X1][dP][dV]G[X1][dP][dR]A[X1][dF][dK]G-{NHCH2C6H4(4-CH2CONH2)}), for which the Kd turned out to be 23 nM.

With `CC(C)C[C@H](NC(=O)[C@@H](CCCCN)NC(=O)[C@@H](Cc1c[nH]c2ccccc12)NC(=O)Cc1ccc(CNC(=O)CNC(=O)[C@H](NC(=O)[C@H]2CCCN2C(=O)Cc2ccc(CNC(=O)[C@H](Cc3ccccc3)NC(=O)[C@@H](CCCNC(=N)N)NC(=O)[C@@H](CC(N)=O)NC(=O)Cc3ccc(CNC(=O)[C@H](Cc4ccccc4)NC(=O)[C@@H](CCCCN)NC(=O)[C@@H](C)NC(=O)Cc4ccc(CNC(=O)[C@H](C)NC(=O)[C@@H](CCCNC(=N)N)NC(=O)[C@@H](Cc5ccccc5)NC(=O)Cc5ccc(CNC(=O)[C@@H](NC(=O)[C@@H](CCC(=O)O)NC(=O)[C@@H](Cc6ccccc6)NC(=O)Cc6ccc(CNC(=O)[C@H](CC(C)C)NC(=O)[C@@H](CCCNC(=N)N)NC(=O)[C@@H](CC(C)C)NC(=O)Cc7ccc(CNC(=O)[C@H](CC(C)C)NC(=O)[C@H](NC(=O)[C@@H](CCCCN)NC(=O)c8ccc9c(c8)C(=O)OC98c9ccc(O)cc9Oc9cc(O)ccc98)C(C)C)cc7)cc6)C(C)C)cc5)cc4)cc3)cc2)C(C)C)cc1)C(=O)NCc1ccc(CC(=O)N[C@H](Cc2ccc(O)cc2)C(=O)N[C@H](CCCNC(=N)N)C(=O)N[C@@H](Cc2ccccc2)C(=O)NCc2ccc(CC(N)=O)cc2)cc1` [TNF-39-11] (5FAM-[dK][dV]L[X1][dL][dR]L[X1][dF][dE]V[X1][dF][dR]A[X1][dA][dK]F[X1][dN][dR]F[X1][dP][dV]G[X1][dW][dK]L[X1][dY][dR]F-{NHCH2C6H4(4-CH2CONH2)}), the Kd was 86 nM.

As for `CC(C)C[C@H](NC(=O)[C@@H](CCCNC(=N)N)NC(=O)[C@@H](CC(C)C)NC(=O)Cc1ccc(CNC(=O)[C@H](CC(C)C)NC(=O)[C@H](NC(=O)[C@@H](CCCCN)NC(=O)c2ccc3c(c2)C(=O)OC32c3ccc(O)cc3Oc3cc(O)ccc32)C(C)C)cc1)C(=O)NCc1ccc(CC(=O)N[C@H](CCCNC(=N)N)C(=O)N[C@@H](C(=O)N[C@@H](CC(C)C)C(=O)NCc2ccc(CC(=O)N[C@H](Cc3ccccc3)C(=O)N[C@H](CCCNC(=N)N)C(=O)N[C@@H](C)C(=O)NCc3ccc(CC(=O)N[C@H](C)C(=O)N[C@H](CCCCN)C(=O)N[C@@H](Cc4ccccc4)C(=O)NCc4ccc(CC(=O)N[C@H](CC(N)=O)C(=O)N[C@H](CCCNC(=N)N)C(=O)N[C@@H](Cc5ccccc5)C(=O)NCc5ccc(CC(=O)N6CCC[C@@H]6C(=O)N[C@@H](C(=O)NCC(=O)NCc6ccc(CC(=O)N[C@H](CCC(=O)O)C(=O)N[C@H](CCCNC(=N)N)C(=O)N[C@H](C(=O)NCc7ccc(CC(=O)N[C@H](Cc8ccc(O)cc8)C(=O)N[C@H](CCCNC(=N)N)C(=O)N[C@@H](Cc8ccccc8)C(=O)NCc8ccc(CC(N)=O)cc8)cc7)C(C)C)cc6)C(C)C)cc5)cc4)cc3)cc2)C(C)C)cc1` [TNF-39-1] (5FAM-[dK][dV]L[X1][dL][dR]L[X1][dR][dV]L[X1][dF][dR]A[X1][dA][dK]F[X1][dN][dR]F[X1][dP][dV]G[X1][dE][dR]V[X1][dY][dR]F-{NHCH2C6H4(4-CH2CONH2)}), the Kd came to 116 nM.

As to `CC(C)C[C@H](NC(=O)[C@@H](CCCCN)NC(=O)[C@@H](Cc1ccccc1)NC(=O)Cc1ccc(CNC(=O)[C@H](CC(C)C)NC(=O)[C@@H](CCCCN)NC(=O)[C@@H](CC(C)C)NC(=O)Cc2ccc(CNC(=O)[C@H](Cc3ccccc3)NC(=O)[C@@H](C)NC(=O)[C@@H](C)NC(=O)Cc3ccc(CNC(=O)[C@H](CC(C)C)NC(=O)[C@H](NC(=O)[C@@H](CCCCN)NC(=O)c4ccc5c(c4)C(=O)OC54c5ccc(O)cc5Oc5cc(O)ccc54)C(C)C)cc3)cc2)cc1)C(=O)NCc1ccc(CC(=O)N[C@H](Cc2c[nH]c3ccccc23)C(=O)N[C@H](CCCNC(=N)N)C(=O)N[C@H](C(=O)NCc2ccc(CC(=O)N[C@H](CO)C(=O)N[C@H](CO)C(=O)N[C@@H](Cc3ccccc3)C(=O)NCc3ccc(CC(=O)N[C@H](Cc4c[nH]cn4)C(=O)N[C@H](CCC(=O)O)C(=O)N[C@@H](CC(C)C)C(=O)NCc4ccc(CC(=O)N[C@H](Cc5ccccc5)C(=O)N[C@H](CCCCN)C(=O)N[C@@H](Cc5ccccc5)C(=O)NCc5ccc(CC(=O)N[C@@H](C(=O)N[C@H](CCC(=O)O)C(=O)N[C@@H](CC(C)C)C(=O)NCc6ccc(CC(N)=O)cc6)[C@H](C)O)cc5)cc4)cc3)cc2)C(C)C)cc1` [TNF-31-2] (5FAM-[dK][dV]L[X1][dA][dA]F[X1][dL][dK]L[X1][dF][dK]L[X1][dW][dR]V[X1][dS][dS]F[X1][dH][dE]L[X1][dF][dK]F[X1][dT][dE]L-{NHCH2C6H4(4-CH2CONH2)}), the Kd was determined as 23 nM.

On to `CC(C)C[C@H](NC(=O)[C@@H](CCCNC(=N)N)NC(=O)[C@@H](CC(C)C)NC(=O)Cc1ccc(CNC(=O)[C@H](CC(C)C)NC(=O)[C@@H](CC(C)C)NC(=O)[C@@H](Cc2ccc(O)cc2)NC(=O)c2ccc3c(c2)C(=O)OC32c3ccc(O)cc3Oc3cc(O)ccc32)cc1)C(=O)NCc1ccc(CC(=O)N[C@H](Cc2ccccc2)C(=O)N[C@H](CCC(=O)O)C(=O)N[C@H](C(=O)NCc2ccc(CC(=O)N3CCC[C@@H]3C(=O)N[C@H](CCCNC(=N)N)C(=O)N[C@H](C(=O)NCc3ccc(CC(=O)N[C@H](Cc4c[nH]c5ccccc45)C(=O)N[C@H](CCCNC(=N)N)C(=O)N[C@H](C(=O)NCc4ccc(CC(=O)N[C@H](CCCNC(=N)N)C(=O)N[C@H](Cc5ccc(O)cc5)C(=O)N[C@@H](CC(C)C)C(=O)NCc5ccc(CC(=O)N[C@H](CCC(=O)O)C(=O)N[C@@H](C(=O)N[C@H](C(=O)NCc6ccc(CC(=O)N[C@@H](C(=O)N[C@H](Cc7c[nH]cn7)C(=O)N[C@@H](CC(C)C)C(=O)NCc7ccc(CC(=O)N[C@H](Cc8ccc(O)cc8)C(=O)N[C@H](CCCNC(=N)N)C(=O)N[C@@H](Cc8ccccc8)C(=O)NCc8ccc(CC(N)=O)cc8)cc7)[C@H](C)O)cc6)C(C)C)C(C)C)cc5)cc4)C(C)C)cc3)C(C)C)cc2)C(C)C)cc1` [TNF-39-6] (5FAM-[dY][dL]L[X1][dL][dR]L[X1][dF][dE]V[X1][dP][dR]V[X1][dW][dR]V[X1][dR][dY]L[X1][dE][dV]V[X1][dT][dH]L[X1][dY][dR]F-{NHCH2C6H4(4-CH2CONH2)}), for which the Kd was 93 nM.
